Results taken from patent publication US10450316B2, “Certain protein kinase inhibitor” (Chongqing Fochon Pharmaceutical Co., Ltd., priority 2015, dated 2019).

Tested on: BE(2)-C cell
Test: Cell proliferation assay (MTS) in BE(2)-C cells
Format: cell-based
Conditions: Homo sapiens, inhibition of BE(2)-C cell proliferation, 48 h
Method in brief: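 BE(2)-C cells (3000/well, DMEM + 10% FBS) were treated for 48 h at 37 °C with compound at 1.5–10000 nM in nine concentrations. Viability was measured by MTS (2 h, stopped with SDS) at 490/650 nm, and IC50 was calculated from the dose-response.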

| SMILES | IC50 [µM] |
| --- | --- |
| CN1CC2(C1)CN(Cc1ccc(Nc3ncc(F)c(-c4cc(F)c5nc6n(c5c4)[C@H](C(F)F)CC6)n3)nc1)C2 [Example 46, (S)-4-(1-(difluoromethyl)-5-fluoro-2,3-dihydro-1H-benzo[d]pyrrolo[1,2-a]imidazol-7-yl)-5-fluoro-N-(5-((6-methyl-2,6-diazaspiro[3.3]heptan-2-yl)methyl)pyridin-2-yl)pyrimidin-2-amine] | 0.01 to 0.1 |
| Fc1cnc(Nc2ccc(CN3CC4(CCNCC4)C3)cn2)nc1-c1cc(F)c2nc3n(c2c1)[C@H](C(F)F)CC3 [Example 42, (S)-N-(5-((2,7-diazaspiro[3.5]nonan-2-yl)methyl)pyridin-2-yl)-4-(1-(difluoromethyl)-5-fluoro-2,3-dihydro-1H-benzo[d]pyrrolo[1,2-a]imidazol-7-yl)-5-fluoropyrimidin-2-amine] | > 0.1 |
| C[C@@H]1CCc2nc3c(F)cc(-c4nc(Nc5ccc(CN6CCC7(CC6)CN(C)C7)cn5)ncc4F)cc3n21 [Example 87, (R)-5-fluoro-4-(5-fluoro-1-methyl-2,3-dihydro-1H-benzo[d]pyrrolo[1,2-a]imidazol-7-yl)-N-(5-((2-methyl-2,7-diazaspiro[3.5]nonan-7-yl)methyl)pyridin-2-yl)pyrimidin-2-amine] | 0.01 to 0.1 |
| CCN1CC2CN(Cc3ccc(Nc4ncc(F)c(-c5cc(F)c6nc7n(c6c5)[C@H](C(F)(F)F)CC7)n4)nc3)CC2C1 (stereo partly drawn) [Example 75, N-(5-((5-ethylhexahydropyrrolo[3,4-c]pyrrol-2(1H)-yl)methyl)pyridin-2-yl)-5-fluoro-4-((S)-5-fluoro-1-(trifluoromethyl)-2,3-dihydro-1H-benzo[d]pyrrolo[1,2-a]imidazol-7-yl)pyrimidin-2-amine] | 0.01 to 0.1 |
| CCN1CC2(C1)CN(Cc1ccc(Nc3ncc(F)c(-c4cc(F)c5nc6n(c5c4)C(C)(C)CC6)n3)nc1)C2 [Example 119, N-(5-((6-ethyl-2,6-diazaspiro[3.3]heptan-2-yl)methyl)pyridin-2-yl)-5-fluoro-4-(5-fluoro-1,1-dimethyl-2,3-dihydro-1H-benzo[d]pyrrolo[1,2-a]imidazol-7-yl)pyrimidin-2-amine] | 0.01 to 0.1 |
| CCN1C2CCC1CN(Cc1ccc(Nc3ncc(F)c(-c4cc(F)c5nc6n(c5c4)[C@H](C)CC6)n3)nc1)C2 [Example 106, N-(5-((8-ethyl-3,8-diazabicyclo[3.2.1]octan-3-yl)methyl)pyridin-2-yl)-5-fluoro-4-((R)-5-fluoro-1-methyl-2,3-dihydro-1H-benzo[d]pyrrolo[1,2-a]imidazol-7-yl)pyrimidin-2-amine] | 0.01 to 0.1 |
| CN1C2CCC1CN(Cc1ccc(Nc3ncc(F)c(-c4cc(F)c5nc6n(c5c4)[C@H](C(F)(F)F)CC6)n3)nc1)C2 [Example 80, 5-fluoro-4-((S)-5-fluoro-1-(trifluoromethyl)-2,3-dihydro-1H-benzo[d]pyrrolo[1,2-a]imidazol-7-yl)-N-(5-((8-methyl-3,8-diazabicyclo[3.2.1]octan-3-yl)methyl)pyridin-2-yl)pyrimidin-2-amine] | 0.01 to 0.1 |
| C[C@@H]1CCc2nc3c(F)cc(-c4nc(Nc5ccc(CN6CC7(CN(C)C7)C6)cn5)ncc4F)cc3n21 [Example 96, (R)-5-fluoro-4-(5-fluoro-1-methyl-2,3-dihydro-1H-benzo[d]pyrrolo[1,2-a]imidazol-7-yl)-N-(5-((6-methyl-2,6-diazaspiro[3.3]heptan-2-yl)methyl)pyridin-2-yl)pyrimidin-2-amine] | > 0.1 |
| Fc1cnc(Nc2ccc(CN3CC4CCC(C3)N4)cn2)nc1-c1cc(F)c2nc3n(c2c1)[C@H](C(F)(F)F)CC3 [Example 79, N-(5-((3,8-diazabicyclo[3.2.1]octan-3-yl)methyl)pyridin-2-yl)-5-fluoro-4-((S)-5-fluoro-1-(trifluoro-methyl)-2,3-dihydro-1H-benzo[d]pyrrolo[1,2-a]imidazol-7-yl)pyrimidin-2-amine] | 0.01 to 0.1 |
| CC1(C)CCc2nc3c(F)cc(-c4nc(Nc5ccc(CN6CCC7(CCNCC7)CC6)cn5)ncc4F)cc3n21 [Example 120, N-(5-((3,9-diazaspiro[5.5]undecan-3-yl)methyl)pyridin-2-yl)-5-fluoro-4-(5-fluoro-1,1-dimethyl-2,3-dihydro-1H-benzo[d]pyrrolo[1,2-a]imidazol-7-yl)pyrimidin-2-amine] | > 0.1 |
| C[C@@H]1CCc2nc3c(F)cc(-c4nc(Nc5ccc(CN6CCNCC6)cn5)ncc4F)cc3n21 [Example 82, (R)-5-fluoro-4-(5-fluoro-1-methyl-2,3-dihydro-1H-benzo[d]pyrrolo[1,2-a]imidazol-7-yl)-N-(5-(piperazin-1-ylmethyl)pyridin-2-yl)pyrimidin-2-amine] | 0.01 to 0.1 |
| FC[C@@H]1CCc2nc3c(F)cc(-c4nc(Nc5ccc(CN6CCNCC6)cn5)ncc4F)cc3n21 [Example 4, (S)-5-fluoro-4-(5-fluoro-1-(fluoromethyl)-2,3-dihydro-1H-benzo[d]pyrrolo[1,2-a]imidazol-7-yl)-N-(5-(piperazin-1-ylmethyl)pyridin-2-yl)pyrimidin-2-amine] | > 0.1 |
| CCN1CCN(Cc2ccc(Nc3ncc(F)c(-c4cc(F)c5nc6n(c5c4)[C@H](CO)CC6)n3)nc2)CC1 [Example 3, (S)-(7-(2-((5-((4-ethylpiperazin-1-yl)methyl)pyridin-2-yl)amino)-5-fluoropyrimidin-4-yl)-5-fluoro-2,3-dihydro-1H-benzo[d]pyrrolo[1,2-a]imidazol-1-yl) methanol] | > 0.1 |
| FC[C@@H]1CCc2nc3c(F)cc(-c4nc(Nc5ccc(CN6CC7CCC(C6)N7)cn5)ncc4F)cc3n21 [Example 35, N-(5-((3,8-diazabicyclo[3.2.1]octan-3-yl)methyl)pyridin-2-yl)-5-fluoro-4-((5)-5-fluoro-1-(fluoro-methyl)-2,3-dihydro-1H-benzo[d]pyrrolo[1,2-a]imidazol-7-yl)pyrimidin-2-amine] | > 0.1 |
| CCN1C2CCC1CN(Cc1ccc(Nc3ncc(F)c(-c4cc(F)c5nc6n(c5c4)[C@H](C(F)F)CC6)n3)nc1)C2 [Example 59, 4-((S)-1-(difluoromethyl)-5-fluoro-2,3-dihydro-1H-benzo[d]pyrrolo[1,2-a]imidazol-7-yl)-N-(5-((8-ethyl-3,8-diazabicyclo[3.2.1]octan-3-yl)methyl)pyridin-2-yl)-5-fluoropyrimidin-2-amine] | 0.01 to 0.1 |
| FC[C@@H]1CCc2nc3c(F)cc(-c4nc(Nc5ccc(CN6CC7(CNC7)C6)cn5)ncc4F)cc3n21 [Example 23, (S)-N-(5-((2,6-diazaspiro[3.3]heptan-2-yl)methyl)pyridin-2-yl)-5-fluoro-4-(5-fluoro-1-(fluoromethyl)-2,3-dihydro-1H-benzo[d]pyrrolo[1,2-a]imidazol-7-yl)pyrimidin-2-amine] | > 1 |
| CN1CC2(C1)CN(Cc1ccc(Nc3ncc(F)c(-c4cc(F)c5nc6n(c5c4)[C@H](CF)CC6)n3)nc1)C2 [Example 24, (S)-5-fluoro-4-(5-fluoro-1-(fluoromethyl)-2,3-dihydro-1H-benzo[d]pyrrolo[1,2-a]imidazol-7-yl)-N-(5-((6-methyl-2,6-diazaspiro[3.3]heptan-2-yl)methyl)pyridin-2-yl)pyrimidin-2-amine] | > 0.1 |
| CCN1CC2CN(Cc3ccc(Nc4ncc(F)c(-c5cc(F)c6nc7n(c6c5)C(C)(C)CC7)n4)nc3)CC2C1 (stereo not drawn) [Example 125, N-(5-((5-ethylhexahydropyrrolo[3,4-c]pyrrol-2(1H)-yl)methyl)pyridin-2-yl)-5-fluoro-4-(5-fluoro-1,1-dimethyl-2,3-dihydro-1H-benzo[d]pyrrolo[1,2-a]imidazol-7-yl)pyrimidin-2-amine] | 0.01 to 0.1 |
| CCN1C2CCC1CN(Cc1ccc(Nc3ncc(F)c(-c4cc(F)c5nc6n(c5c4)[C@H](CF)CC6)n3)nc1)C2 [Example 37, N-(5-((8-ethyl-3,8-diazabicyclo[3.2.1]octan-3-yl)methyl)pyridin-2-yl)-5-fluoro-4-((S)-5-fluoro-1-(fluoromethyl)-2,3-dihydro-1H-benzo[d]pyrrolo[1,2-a]imidazol-7-yl)pyrimidin-2-amine] | 0.01 to 0.1 |
| Fc1cnc(Nc2ccc(CN3CCN4CCOC[C@H]4C3)cn2)nc1-c1cc(F)c2nc3n(c2c1)C1(CC3)CC1 [Example 148, (R)-5-fluoro-4-(5-fluoro-2,3-dihydrospiro[benzo [d]pyrrolo[1,2-a]imidazole-1,1′-cyclopropan]-7-yl)-N-(5-((hexahydropyrazino[2,1-c][1,4]oxazin-8(1H)-yl)methyl)pyridin-2-yl)pyrimidin-2-amine] | 0.01 to 0.1 |
| CCN1CCC2(CC1)CCN(Cc1ccc(Nc3ncc(F)c(-c4cc(F)c5nc6n(c5c4)C(C)(C)CC6)n3)nc1)CC2 [Example 122, N-(5-((9-ethyl-3,9-diazaspiro[5.5]undecan-3-yl)methyl)pyridin-2-yl)-5-fluoro-4-(5-fluoro-1,1-dimethyl-2,3-dihydro-1H-benzo[d]pyrrolo[1,2-a]imidazol-7-yl)pyrimidin-2-amine] | 0.01 to 0.1 |
| CN1CC2(CCN(Cc3ccc(Nc4ncc(F)c(-c5cc(F)c6nc7n(c6c5)C(C)(C)CC7)n4)nc3)CC2)C1 [Example 115, 5-fluoro-4-(5-fluoro-1,1-dimethyl-2,3-dihydro-1H-benzo[d]pyrrolo[1,2-a]imidazol-7-yl)-N-(5-((2-methyl-2,7-diazaspiro[3.5]nonan-7-yl)methyl)pyridin-2-yl)pyrimidin-2-amine] | 0.01 to 0.1 |
| CC1(C)CCc2nc3c(F)cc(-c4nc(Nc5ccc(CN6CC7(CNC7)C6)cn5)ncc4F)cc3n21 [Example 117, N-(5-((2,6-diazaspiro[3.3]heptan-2-yl)methyl)pyridin-2-yl)-5-fluoro-4-(5-fluoro-1,1-dimethyl-2,3-dihydro-1H-benzo[d]pyrrolo[1,2-a]imidazol-7-yl)pyrimidin-2-amine] | > 0.1 |
| CCN1C2CC1CN(Cc1ccc(Nc3ncc(F)c(-c4cc(F)c5nc6n(c5c4)C4(CC6)CC4)n3)nc1)C2 [Example 134, N-(5-((6-ethyl-3,6-diazabicyclo[3.1.1]heptan-3-yl)methyl)pyridin-2-yl)-5-fluoro-4-(5-fluoro-2,3-dihydrospiro[benzo[d]pyrrolo[1,2-a]imidazole-1,1′-cyclopropan]-7-yl)pyrimidin-2-amine] | > 0.1 |
